Patent US5180724A, “Carboxamide amino acid heterobicyclic PAF antagonists” (British Bio-Technology Limited, priority 1991, dated 1993)

How the values were obtained:
[1] = tested on: PAF-induced hypotension in the rat; assay: Reversal of PAF-induced hypotension in anaesthetised rats; assay type: in vivo, rat (male Sprague-Dawley); details: iv, i.v. bolus during PAF infusion 100 ng/kg/min i.v., mean blood pressure fall of 50 mmHg, read-out: ED50 (dose to cause a 50% reversal of the hypotensive PAF response)
Description: (§1) Compounds of general formula I inhibit PAF-induced functions in both the cellular and tissue levels by changing the PAF binding to its specific receptor site. The ability of compounds of general formula I to inhibit the binding of PAF to its specific receptor binding site on human platelet plasma membranes was measured according to Pharmacological Example 1. The ability of compounds of general formula I to reverse the hypotension caused by an infusion of PAF in rats was measured according to Pharmacology Example 2.
Male Sprague-Dawley rats (300-350 gms) were anaesthetised with a mixture of sodium pentobarbitone, 22.5 mg.kg^-1 and thiopental 62.5 mg.kg^-1. Through a midline incision in the neck, the trachea was cannulated and the animals breathed spontaneously. A carotid artery was cannulated for the measurement of blood pressure and this signal was used to trigger a rate meter to measure heart rate. Both jugular veins were cannulated: one for the infusion of PAF and the other for the bolus administration of test compounds.
PAF, 100 ng.kg^-1. min^-1 was infused i.v. until a sustained fall in mean blood pressure of 50 mmHg was achieved. […] The peak of this reversal was measured and the dose to cause a 50% reversal of the hypotensive PAF response (ED50) calculated by straight line interpolation and the results are presented in Table 2. Also presented in Table 2 is the result for a comparative example (N-cyclohexyl-N-methyl 4-(lH-imidazo[4,5-c]pyridin-1-ylmethyl)benzamide. This compound (a PAF antagonist described in EP-A-02606130) is not within the scope of the invention.

[2] = target: T1, PAF receptor (specific receptor binding site on human platelet plasma membranes) (Homo sapiens, UniProt P25105); assay: Inhibition of 3H-PAF binding to human platelet plasma membrane (receptor binding, filtration); details: 0.5 nM 3H-PAF, 0° C., 1 hour incubation
T1 construct: from tissue; host or cells: human platelets (platelet concentrates from a hospital blood bank), lysed plasma membranes
Description: as §1
The inhibition of ^3 H-PAF binding to human platelet plasma membrane by compounds of general formula I was determined by isotopic labelling and filtration techniques. Platelet concentrates were obtained from a hospital blood bank. These platelet concentrates (500-2500 ml.) were centrifuged at 800 rpm for 10 minutes in a SORVALL RC3B centrifuge to remove the red blood cells present. (The word SORVALL is a trade mark.) The supernatant was subsequently centrifuged at 3,000 rpm in a SORVALL RC3B centrifuge to pellet the platelets present. […]
The assay was conducted by preparing a series of Tris-buffered solutions of the selected antagonist of predetermined concentrations. […] Each washed residue was dried under vacuum on a sampling manifold and placed into vials containing 20 ml of OPTIPHASE MP scintillation fluid and the radioactivity counted in a liquid scintillation counter. […]

T1 sequence (P25105 whole entry): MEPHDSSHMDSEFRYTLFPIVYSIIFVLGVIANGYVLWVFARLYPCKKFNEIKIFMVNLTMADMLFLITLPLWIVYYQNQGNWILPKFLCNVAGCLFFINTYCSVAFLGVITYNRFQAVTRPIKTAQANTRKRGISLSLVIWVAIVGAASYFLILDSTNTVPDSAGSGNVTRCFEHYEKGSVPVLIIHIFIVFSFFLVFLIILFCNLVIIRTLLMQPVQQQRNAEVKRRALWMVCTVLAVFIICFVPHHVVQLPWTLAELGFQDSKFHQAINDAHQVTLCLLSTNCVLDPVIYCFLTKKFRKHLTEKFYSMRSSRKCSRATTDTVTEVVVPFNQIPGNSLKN

Structure (SMILES)	ED50 [1] [µg/kg]	IC50 [2] [µM]
CCOC[C@H](CC(C)C)N(C)C(=O)c1ccc(Cn2c(C)nc3cnccc32)cc1 [3 (B), N-Methyl-N-L-leucinol ethyl ether 4-(lH-2-methylimidazo[4,5-c]pyridylmethyl)benzamide]	6	–
CN(C(=O)c1ccc(Cn2cnc3cnccc32)cc1)C1CCCCC1 [Comparative Example, N-cyclohexyl-N-methyl 4-(lH-imidazo[4,5-c]pyridin-1-ylmethyl)benzamide, reference compound]	150	10
CCOC(=O)[C@H](CC(C)C)N(C)C(=O)c1ccc(Cn2c(C)nc3cnccc32)cc1 [2 (B), N-Methyl-N-L-leucinyl ethyl ester 4-(1H-2-methylimidazo[4,5-c]pyridylmethyl)benzamide]	5	0.01
